Activity calls are given as the source filed them. No cut-off for these calls is given here.
Columns and labels:
Ebolavirus [1] = experiment: Antiviral activity against VSV-G pseudotyped EBOV-GP Mayinga infected in African green monkey Vero E6 cells assessed as inhibition of viral infection preincubated with cells for 1 hr followed by viral infection and measured after 24 hrs by luciferase based luminometric analysis; type: functional, organism-based; details: Orthoebolavirus, Vero C1008
[2] = Cytotoxicity against African green monkey Vero E6 cells assessed as reduction in cell viability incubated for 24 hrs by CellTiter-Glo Luminescent Cell Viability Assay; type: toxicity, cell-based, Vero C1008; details: chlorocebus sabaeus
[3] = Selectivity index, ratio of CC50 for cytotoxicity against African green monkey Vero E6 cells to EC50 for antiviral activity against VSV-G pseudotyped EBOV-GP Mayinga infected in African green monkey Vero E6 cells; type: toxicity, cell-based; details: read-out: Ratio CC50/EC50
[4] = Selectivity index, ratio of CC50 for cytotoxicity against African green monkey Vero E6 cells to EC50 for antiviral activity against replicative EBOV Mayinga variant infected in African green monkey Vero E6 cells; type: toxicity, cell-based; details: read-out: Ratio CC50/EC50
[5] = test system: Vesicular stomatitis virus; experiment: Antiviral activity against VSV-G pseudotyped virus infected in African green monkey Vero E6 cells assessed as inhibition of viral infection at 10 uM preincubated with cells for 1 hr followed by viral infection and measured after 24 hrs by luciferase based luminometric analysis; type: functional, organism-based; details: time 25.0 hrs
Ebolavirus [6] = experiment: Binding affinity to EBOV-GP assessed as appearance of STD signals of aromatic region of compound at ligand to protein concentration molar ratio of 100:1 in presence of imipramine by STD-NMR analysis
Ebolavirus [7] = experiment: Inhibition of cleaved EBOV-GP assessed as disruption of interaction between EBOV-GPcl and Flag-tagged human NPC1 domain C at 50 uM by ELISA
Ebolavirus [8] = experiment: Binding affinity to EBOV-GP assessed as appearance of STD signals of aromatic region of compound at ligand to protein concentration molar ratio of 100:1 by STD-NMR analysis
Ebolavirus [9] = experiment: Antiviral activity against replicative EBOV Mayinga infected in African green monkey Vero E6 cells assessed as reduction in virus titer in cell culture supernatant incubated for 3 days by immunofocus assay; type: functional, organism-based

For `O=C(CN1CCCC1)NNc1ccccc1Sc1cc(Cl)ccc1[N+](=O)[O-]`, the EC50 (Ebolavirus [1]) was 2.9 µM.

Compound `O=C(CN1CCCCC1)Nc1ccccc1Sc1cc(Cl)ccc1[N+](=O)[O-]` has a CC50 at 24 h [2] of 250 µM.

Compound `O=C(CCNCCc1ccccc1)Nc1ccccc1Sc1cc(Cl)ccc1[N+](=O)[O-]` has a CC50 at 24 h [2] of 250 µM.

With `O=C(CNCCC1CCN(Cc2ccccc2)CC1)Nc1ccccc1Nc1cc(Cl)ccc1[N+](=O)[O-]` the selectivity ratio [3] was 4.1, the selectivity ratio [4] was 2.3 and the Activity [5] was “inactive”. The Activity (Ebolavirus [6]) was “inactive”, the inhibition (Ebolavirus [7]) was “Active” and the Activity (Ebolavirus [8]) was “Active”.

`NC(=O)c1nc(F)c[nH]c1=O` gave a selectivity ratio [4] of 14.9 and a CC50 at 24 h [2] of over 1000 µM.

For `O=C(CNCCC1CCN(Cc2ccccc2)CC1)Nc1ccccc1Sc1cc(Cl)ccc1[N+](=O)[O-]`, the Activity [5] was “inactive”.

`O=C(CNCc1ccccc1)Nc1ccccc1Sc1cc(Cl)ccc1[N+](=O)[O-]` gave a CC50 at 24 h [2] of 250 µM.

With `CCN(CC)CCC(=O)Nc1ccccc1Nc1cc(Cl)ccc1[N+](=O)[O-]` the Activity [5] was “inactive”.

`CCN(CC)CC(=O)Nc1ccccc1Sc1cc(Cl)ccc1[N+](=O)[O-]` gave a CC50 at 24 h [2] of 250 µM.

For `O=C(CN1CCCC1)Nc1ccccc1Sc1cc(Cl)ccc1[N+](=O)[O-]`, the CC50 at 24 h [2] was 250 µM and the EC50 (Ebolavirus [9]) was “Not_active”.

`CCN(CC)CC(=O)NNc1ccccc1Sc1cc(Cl)ccc1[N+](=O)[O-]` gave an EC50 (Ebolavirus [1]) of 4.02 µM.

For `O=C(CCN1CCCC1)Nc1ccccc1Sc1cc(Cl)ccc1[N+](=O)[O-]`, the Activity [5] was “inactive” and the EC50 (Ebolavirus [9]) was “Not_active”.

With `O=C(CCN1CCCC1)Nc1ccccc1Nc1cc(Cl)ccc1[N+](=O)[O-]` the Activity [5] was “inactive”.

For `CCN(CC)CCC(=O)Nc1ccccc1Sc1cc(Cl)ccc1[N+](=O)[O-]`, the Activity [5] was “inactive”.

Reference: ChEMBL document CHEMBL6182911, “From Diarylsulfides to Diarylamines: New Ebola Virus Entry Inhibitors with Improved Metabolic Stability” (J Med Chem, 2025)
